ChEMBL document CHEMBL4261543, “Integrating docking scores and key interaction profiles to improve the accuracy of molecular docking: towards novel B-RafV600E inhibitors” (Medchemcomm, 2017)

These compounds were tested on Serine/threonine-protein kinase B-raf (Homo sapiens), P15056 [V600E] (assay: Inhibition of B-Raf V600E mutant (unknown origin) at 10 uM using fluorescein-MAP2K1 as substrate after 1 hr by electrophoretic assay relative to control).
Chain of Serine/threonine-protein kinase B-raf (Homo sapiens), P15056 [V600E] (P15056 whole entry V600E): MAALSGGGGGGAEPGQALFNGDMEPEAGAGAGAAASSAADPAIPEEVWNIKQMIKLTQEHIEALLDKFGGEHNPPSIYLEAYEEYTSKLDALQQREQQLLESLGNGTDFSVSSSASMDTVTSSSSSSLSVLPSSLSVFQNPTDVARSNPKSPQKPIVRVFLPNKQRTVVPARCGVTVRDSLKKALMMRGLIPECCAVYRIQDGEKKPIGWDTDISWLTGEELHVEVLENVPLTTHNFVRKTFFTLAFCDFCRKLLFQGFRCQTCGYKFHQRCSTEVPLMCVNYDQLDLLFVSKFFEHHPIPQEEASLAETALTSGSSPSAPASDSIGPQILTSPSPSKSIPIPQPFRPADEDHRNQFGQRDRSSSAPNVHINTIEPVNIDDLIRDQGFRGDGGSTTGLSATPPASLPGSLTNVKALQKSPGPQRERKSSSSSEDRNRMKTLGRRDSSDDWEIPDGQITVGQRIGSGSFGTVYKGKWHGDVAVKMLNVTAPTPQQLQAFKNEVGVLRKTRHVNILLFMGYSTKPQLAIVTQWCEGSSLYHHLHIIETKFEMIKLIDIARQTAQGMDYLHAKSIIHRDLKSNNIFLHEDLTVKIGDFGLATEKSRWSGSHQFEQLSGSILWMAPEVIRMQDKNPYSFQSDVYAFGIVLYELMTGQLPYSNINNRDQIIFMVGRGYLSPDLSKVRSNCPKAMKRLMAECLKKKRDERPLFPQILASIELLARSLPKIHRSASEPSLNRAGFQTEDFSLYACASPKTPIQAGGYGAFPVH

SMILES	inhibition [%]
CCCS(=O)(=O)Nc1ccc(Cl)c(C(=O)Nc2cnc3[nH]cc(OC)c3c2)c1F	> 40
CCCS(=O)(=O)Nc1ccc(F)c(C(=O)Nc2cnc3[nH]ccc3c2)c1F	> 40
CCCS(=O)(=O)Nc1ccc(Cl)c(C(=O)Nc2cnc3[nH]ccc3c2)c1F	> 40
CC(C)(C)c1nc(-c2cccc(NS(=O)(=O)c3c(F)cccc3F)c2F)c(-c2ccnc(N)n2)s1	> 40
CCCS(=O)(=O)Nc1ccc(F)c(C(=O)Nc2cnc3[nH]ccc3c2)c1C	> 40
CCCS(=O)(=O)Nc1ccc(F)c(NC(=O)c2cccc3c(N)ncnc23)c1Cl	> 40
CCCS(=O)(=O)Nc1ccc(F)c(C(=O)Nc2cnc3[nH]cc(C)c3c2)c1F	> 40
CCCS(=O)(=O)Nc1ccc(F)c(C(=O)Nc2cnc3[nH]cc(OC)c3c2)c1F	> 40
CCCS(=O)(=O)Nc1ccc(F)c(C(=O)Nc2cnc3[nH]cnc3c2)c1C	> 40
CCCS(=O)(=O)Nc1ccc(F)c(-c2cc3cnccc3cn2)c1F	> 40
CCCS(=O)(=O)Nc1ccc(F)c(NC(=O)c2csc3c(N)ncnc23)c1F	> 40
CC(C)c1nc(-c2ccc(F)c(NS(=O)(=O)c3c(F)cccc3F)c2)c(-c2ccnc(NCCS(C)(=O)=O)n2)s1	> 40
CCCS(=O)(=O)Nc1ccc(F)c(-c2cc3cnccc3c(=O)n2C)c1F	> 40
CCCS(=O)(=O)Nc1ccc(Cl)c(NC(=O)c2csc3c(N)ncnc23)c1F	> 40
CCCS(=O)(=O)Nc1ccc(F)c(-c2cc3cnc(NC4CCOCC4)nc3n(C)c2=O)c1F	> 40
CCCS(=O)(=O)Nc1ccc(F)c(C(=O)Nc2ccc(N)nc2)c1F	> 40
CCCS(=O)(=O)Nc1ccc(F)c(-c2cc3cnc(NCCO)nc3n(C)c2=O)c1F	> 40
CCCS(=O)(=O)Nc1ccc(F)c(C(=O)Nc2cnc3[nH]cc(Br)c3c2)c1F	> 40
Nc1ncnc2c(C(=O)Nc3c(Cl)ccc(NS(=O)(=O)CCCF)c3F)cccc12	> 40
CCCS(=O)(=O)Nc1ccc(F)c(-c2cc3cnc(NC)nc3n(C)c2=O)c1F	> 40

SMILES	inhibition [%]
CCCS(=O)(=O)Nc1ccc(F)c(NC(=O)Nc2ncnc3[nH]nc(OC)c23)c1F	> 40
CCCS(=O)(=O)Nc1ccc(F)c(-c2ccc3cc(N)ncc3c2)c1F	> 40
CCCS(=O)(=O)Nc1ccc(F)c(-c2cc3cncc(Br)c3cn2)c1F	> 40
CCCS(=O)(=O)Nc1ccc(F)c(NC(=O)Nc2ncnc3[nH]ncc23)c1F	> 40
CCCS(=O)(=O)Nc1ccc(F)c(-c2cc3cnc(N)nc3n(C)c2=O)c1F	> 40
CCCS(=O)(=O)Nc1ccc(F)c(-c2cc3cnc(NCC4CC4)nc3n(C)c2=O)c1F	> 40
CCCS(=O)(=O)Nc1ccc(F)c(-c2cc3cnccc3n(CCc3ccccc3)c2=O)c1F	> 40
CCCS(=O)(=O)Nc1ccc(F)c(C(=O)Nc2cnc3[nH]nc(OC)c3c2)c1F	> 40
CCCS(=O)(=O)Nc1ccc(F)c(-c2cc3cnc(Nc4cnn(C)c4)nc3n(C)c2=O)c1F	> 40
CCCS(=O)(=O)Nc1ccc(F)c(NC(=O)N(C)c2cc(N)ncn2)c1F	> 40
CCCS(=O)(=O)Nc1ccc(F)c(NC(=O)c2csc3c(N)ncnc23)c1Cl	> 40
CC(C)c1nc(-c2cccc(NS(=O)(=O)c3c(F)cccc3F)c2)c(-c2ccnc(NCCS(C)(=O)=O)n2)s1	> 40
CCCS(=O)(=O)Nc1ccc(F)c(C(=O)Nc2cnc3[nH]cc(N(C)C)c3c2)c1F	> 40
CCCS(=O)(=O)Nc1ccc(Cl)c(NC(=O)c2cccc3c(N)ncnc23)c1F	> 40
CCCS(=O)(=O)Nc1ccc(F)c(NC(=O)Nc2cc(NC)ncn2)c1F	> 40
CCCS(=O)(=O)Nc1ccc(F)c(NC(=O)c2cccc3c(N)ncnc23)c1F	> 40
Nc1ncnc2c(C(=O)Nc3c(Cl)ccc(NS(=O)(=O)CCCF)c3F)csc12	> 40
CCCS(=O)(=O)Nc1ccc(F)c(-c2cc3cnc(NCCCO)nc3n(C)c2=O)c1F	> 40
CCCS(=O)(=O)Nc1ccc(F)c(NC(=O)Nc2cc(N)ncn2)c1F	> 40

Next, values leading:

inhibition [%]	SMILES
> 40	CC(C)c1nc(-c2cccc(NS(=O)(=O)c3cccc(F)c3)c2)c(-c2ccnc(NCC(N)=O)n2)s1
> 40	CN(C)CCNC(=O)c1ccc(Nc2ncc3cc(-c4ccncc4)ccc3n2)cc1
> 40	CC(C)(C)c1nc(-c2cccc(NS(=O)(=O)c3cc(F)ccc3F)c2)c(-c2ccnc(N)n2)s1
> 40	C[C@@H](NC(=O)[C@H]1CCCCN1C)c1ccc(Nc2ncc3cc(-c4ccncc4)ccc3n2)cc1
> 40	CC(=O)N[C@H](C)c1ccc(Nc2ncc3cc(-c4ccncc4)c(C)cc3n2)cc1
> 40	CCCS(=O)(=O)Nc1ccc(F)c(-c2cc3cnc(Nc4ccccc4)nc3n(C)c2=O)c1F
> 40	COCCNC(=O)c1ccc(Nc2ncc3cc(-c4cccnc4)ccc3n2)cc1
> 40	c1cc(-c2ccc3nc(Nc4ccc(OCCN5CCCC5)cc4)ncc3c2)ccn1
> 40	CN1CCCC1CCNC(=O)c1ccc(Nc2ncc3cc(-c4ccncc4)ccc3n2)cc1 (stereo unspecified)
> 40	C[C@@H](NC(=O)[C@H]1CCCCN1CCO)c1ccc(Nc2ncc3cc(-c4ccncc4)ccc3n2)cc1
> 40	CCCS(=O)(=O)Nc1ccc(F)c(C(=O)c2c[nH]c3ncc(-c4ccc(Cl)cc4)cc23)c1F
> 40	COCCNC(=O)c1ccc(Nc2ncc3cc(-c4ccccc4)ccc3n2)cc1
> 40	CCCS(=O)(=O)Nc1ccc(F)c(-c2ccc3ccncc3c2)c1F
> 40	CC(C)c1nc(-c2cccc(NS(=O)(=O)c3c(F)cccc3F)c2)c(-c2ccnc(N)n2)s1
> 40	COCCNC(=O)c1ccc(Nc2ncc3cc(-c4ccc(OC)nc4)ccc3n2)cc1
> 40	CC(=O)N[C@H](C)c1ccc(Nc2ncc3cc(-c4ccncc4)cc(Cl)c3n2)cc1
> 40	CC(C)c1nc(-c2ccc(F)c(NS(=O)(=O)c3c(F)cccc3F)c2)c(-c2ccnc(Nc3ccc(N4CCOCC4)nc3)n2)s1
> 40	C[C@@H](NC1=CC(=O)CNC1)c1ccc(Nc2ncc3cc(-c4ccncc4)ccc3n2)cc1

inhibition [%]	SMILES
> 40	CCCS(=O)(=O)Nc1ccc(C)c(-c2ccc3nc(N)ncc3c2)c1
> 40	O=C(NCCN1CCCC1)c1ccc(Nc2ncc3cc(-c4ccncc4)ccc3n2)cc1
> 40	COCCNC(=O)c1ccc(Nc2ncc3cc(-c4ccnc(C)c4)ccc3n2)cc1
> 40	COCCNC(=O)c1ccc(Nc2ncc3cc(-c4ccncc4)ccc3n2)cc1F
> 40	COCCNC(=O)c1ccc(Nc2ncc3cc(-c4cncnc4)ccc3n2)cc1
> 40	CCCS(=O)(=O)Nc1ccc(F)c(-c2ccc3ccncc3n2)c1F
> 40	CC(=O)N(C)c1ccc(Nc2ncc3cc(-c4ccncc4)ccc3n2)cc1
> 40	COCCOc1ccc(Nc2ncc3cc(-c4ccncc4)ccc3n2)cc1
> 40	CC(C)c1nc(-c2cccc(NS(=O)(=O)c3cccc(F)c3)c2)c(-c2ccnc(NCCCN(C)C)n2)s1
> 40	COCCNC(=O)c1ccc(Nc2ncc3cc(-c4ccncc4OC)ccc3n2)cc1
> 40	CCCS(=O)(=O)Nc1ccc(F)c(-c2ccc3nc(N)ncc3c2)c1F
> 40	CCCS(=O)(=O)Nc1ccc(F)c(-c2cc3cnc(Nc4cccnc4)nc3n(C)c2=O)c1F
> 40	CC(=O)Nc1ccc(Nc2ncc3cc(-c4ccncc4)ccc3n2)cc1
> 40	C[C@@H](NC(=O)C1CCNCC1)c1ccc(Nc2ncc3cc(-c4ccncc4)ccc3n2)cc1
> 40	COCCNC(=O)c1ccc(Nc2ncc3cc(-c4ccncc4C)ccc3n2)cc1
> 40	COCCNC(=O)c1ccc(Nc2ncc3cc(-c4ccc(F)nc4)ccc3n2)cc1
> 40	COCCNC(=O)c1ccc(Nc2ncc3cc(-c4ccncc4Cl)ccc3n2)cc1

The compounds below were run against Serine/threonine-protein kinase B-raf (Homo sapiens, UniProt P15056, V600E) (assay: Inhibition of B-Raf V600E mutant (unknown origin) using fluorescein-MAP2K1 as substrate after 1 hr by electrophoretic assay).
Chain of Serine/threonine-protein kinase B-raf (P15056 2-766 V600E limits assumed): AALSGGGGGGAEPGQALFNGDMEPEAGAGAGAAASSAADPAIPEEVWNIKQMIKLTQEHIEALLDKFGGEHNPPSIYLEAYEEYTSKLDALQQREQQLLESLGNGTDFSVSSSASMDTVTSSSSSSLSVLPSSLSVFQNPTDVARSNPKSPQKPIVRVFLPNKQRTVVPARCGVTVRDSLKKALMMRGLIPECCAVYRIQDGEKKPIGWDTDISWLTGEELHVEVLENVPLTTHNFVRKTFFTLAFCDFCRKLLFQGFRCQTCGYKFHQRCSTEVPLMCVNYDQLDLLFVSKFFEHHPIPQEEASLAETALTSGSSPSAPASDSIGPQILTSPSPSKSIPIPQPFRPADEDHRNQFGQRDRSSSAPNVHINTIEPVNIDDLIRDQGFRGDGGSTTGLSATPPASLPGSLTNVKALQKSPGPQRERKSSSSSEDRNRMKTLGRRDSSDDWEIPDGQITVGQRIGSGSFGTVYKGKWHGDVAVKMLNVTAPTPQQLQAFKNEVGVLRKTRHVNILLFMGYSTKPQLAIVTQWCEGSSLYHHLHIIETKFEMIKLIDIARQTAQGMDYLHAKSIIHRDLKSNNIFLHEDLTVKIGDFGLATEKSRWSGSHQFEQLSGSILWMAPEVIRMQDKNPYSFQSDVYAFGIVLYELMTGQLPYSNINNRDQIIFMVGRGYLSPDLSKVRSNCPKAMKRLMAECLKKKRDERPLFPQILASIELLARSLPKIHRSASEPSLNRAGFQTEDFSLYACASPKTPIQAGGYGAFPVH

IC50 [µM]	SMILES
0.0017	CCCS(=O)(=O)Nc1ccc(Cl)c(C(=O)Nc2cnc3[nH]cc(OC)c3c2)c1F
0.017	CCCS(=O)(=O)Nc1ccc(F)c(C(=O)Nc2cnc3[nH]ccc3c2)c1F
0.0063	CCCS(=O)(=O)Nc1ccc(Cl)c(C(=O)Nc2cnc3[nH]ccc3c2)c1F
0.038	CCCS(=O)(=O)Nc1ccc(F)c(C(=O)Nc2cnc3[nH]ccc3c2)c1C
0.012	CCCS(=O)(=O)Nc1ccc(F)c(C(=O)Nc2cnc3[nH]cc(C)c3c2)c1F
0.0048	CCCS(=O)(=O)Nc1ccc(F)c(C(=O)Nc2cnc3[nH]cc(OC)c3c2)c1F
0.061	CCCS(=O)(=O)Nc1ccc(F)c(C(=O)Nc2cnc3[nH]cnc3c2)c1C
0.0034 to 0.004	CCCS(=O)(=O)Nc1ccc(F)c(C(=O)Nc2cnc3[nH]cc(Br)c3c2)c1F
0.0082	CCCS(=O)(=O)Nc1ccc(F)c(C(=O)Nc2cnc3[nH]cc(N(C)C)c3c2)c1F

SMILES	IC50 [µM]
CCCS(=O)(=O)Nc1ccc(F)c(C(=O)Nc2ccc(N)nc2)c1F	0.917 to 0.92
O=c1c(O)c(-c2ccc(O)c(O)c2)oc2cc(O)cc(O)c12 [QUERCETIN]	7.59
O=c1c(O)c(-c2cc(O)c(O)c(O)c2)oc2cc(O)cc(O)c12 [MYRICETIN]	1.56
